Measurements reported in ChEMBL document CHEMBL1127287, “Synthesis and FKBP binding of small molecule mimics of the tricarbonyl region of FK506” (Bioorg Med Chem Lett, 1994).

Tests used:
[1] = biological target: T1, Peptidyl-prolyl cis-trans isomerase FKBP1A (Homo sapiens, UniProt P62942); experiment: Percent inhibition towards recombinant FK506 binding protein 12 to determine the FKBP binding property at a concentration of 100 uM
[2] = biological target: T1, Peptidyl-prolyl cis-trans isomerase FKBP1A; experiment: Binding affinity towards recombinant FK506 binding protein 12 to determine the FKBP binding property of the compound

T1 sequence (P62942 whole entry): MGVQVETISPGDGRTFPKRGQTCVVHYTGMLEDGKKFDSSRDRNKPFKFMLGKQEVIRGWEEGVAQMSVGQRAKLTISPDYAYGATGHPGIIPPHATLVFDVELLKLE

## C=C(C(=O)N1CCCC[C@H]1C(=O)OCCCCc1ccc(OC)cc1)c1cc(OC)c(OC)c(OC)c1
[1]
  inhibition: 39%

## COc1ccc(CCCCOC(=O)[C@@H]2CCCCN2C(=O)C(C)c2cc(OC)c(OC)c(OC)c2)cc1 (stereo not given in full)
[1]
  inhibition: 47%

## COc1ccc(CCCCOC(=O)[C@@H]2CCCCN2C(=O)C(=O)c2cc(OC)c(OC)c(OC)c2)cc1
[1]
  inhibition: 90%
[2]
  IC50: 16 µM

## COc1ccc(CCCCOC(=O)[C@@H]2CCCCN2C(=O)Cc2cc(OC)c(OC)c(OC)c2)cc1
[1]
  inhibition: 52%
